Data reported in ChEMBL document CHEMBL4376809, “Discovery of a Potent and Selective Fragment-like Inhibitor of Methyllysine Reader Protein Spindlin 1 (SPIN1)” (J Med Chem, 2019).
The source made the active and inactive calls. No cut-off for these calls is given here. Non-standard residues stand in square brackets, D forms with d. Residues, ends and D or L forms follow the SMILES beside them. *: point of attachment. Benzoyl(4-tBu) = CC(C)(C)c1ccc(C(=O)*)cc1; Lys(Et2) = CCN(CC)CCCC[C@H](N)C(=O)O

Assays:
[1] = molecular target: T1, E3 SUMO-protein ligase CBX4 (Homo sapiens, UniProt O00257); experiment: Inhibition of CBX4 (unknown origin) assessed as dissociation constant by isothermal titration calorimetry
T1 sequence (O00257 whole entry): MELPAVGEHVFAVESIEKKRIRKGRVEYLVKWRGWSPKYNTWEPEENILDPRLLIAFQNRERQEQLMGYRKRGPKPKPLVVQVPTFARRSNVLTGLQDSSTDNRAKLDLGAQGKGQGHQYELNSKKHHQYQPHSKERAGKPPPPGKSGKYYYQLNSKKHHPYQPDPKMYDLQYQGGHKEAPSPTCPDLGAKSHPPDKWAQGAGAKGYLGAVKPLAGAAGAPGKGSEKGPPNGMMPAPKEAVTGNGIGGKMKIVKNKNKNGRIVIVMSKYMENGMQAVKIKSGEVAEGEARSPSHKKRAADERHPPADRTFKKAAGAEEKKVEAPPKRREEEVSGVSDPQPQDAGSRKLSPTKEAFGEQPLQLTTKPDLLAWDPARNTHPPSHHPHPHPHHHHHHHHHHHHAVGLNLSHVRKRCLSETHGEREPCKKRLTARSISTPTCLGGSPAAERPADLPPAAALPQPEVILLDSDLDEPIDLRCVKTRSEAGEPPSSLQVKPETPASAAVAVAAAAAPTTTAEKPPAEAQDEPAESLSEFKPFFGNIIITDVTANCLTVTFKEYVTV

[2] = molecular target: T2, Chromobox protein homolog 7 (Homo sapiens, UniProt O95931); experiment: Inhibition of CBX7 (unknown origin) assessed as dissociation constant by isothermal titration calorimetry
T2 sequence (O95931 whole entry): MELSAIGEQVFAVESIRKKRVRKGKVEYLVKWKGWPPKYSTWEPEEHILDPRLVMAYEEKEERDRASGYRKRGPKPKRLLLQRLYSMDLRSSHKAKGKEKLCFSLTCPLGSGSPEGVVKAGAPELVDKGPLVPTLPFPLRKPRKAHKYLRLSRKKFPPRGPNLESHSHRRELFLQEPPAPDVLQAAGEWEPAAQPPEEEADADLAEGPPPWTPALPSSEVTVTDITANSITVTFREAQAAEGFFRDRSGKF

Spindlin-1 [3] = molecular target: T3, Spindlin-1 (Homo sapiens, UniProt Q9Y657); experiment: biochemical
Spindlin-1 [4] = molecular target: T3, Spindlin-1
Spindlin-1 [5] = molecular target: T3, Spindlin-1; experiment: biochemical; remark: listed apart in the source
[6] = molecular target: Histone-lysine N-methyltransferase EHMT1/EHMT2 (Homo sapiens) (UniProt Q9H9B1+Q96KQ7); experiment: Inhibition of human G9a catalytic domain/GLP catalytic domain in presence of SAM assessed as dissociation constant by isothermal calorimetry assay; type: protein assay
Spindlin-1 [7] = molecular target: T3, Spindlin-1; remark: listed apart in the source
Spindlin-1 [8] = molecular target: T3, Spindlin-1; remark: listed apart in the source
HFF-1 = experiment: Cytotoxicity against human HFF1 cells assessed as reduction in cell viability up to 30 uM incubated for 6 days by resazurin dye based fluorescence assay; conditions: hff-1, 144 h
Spindlin-3 = Spindlin-3 (Homo sapiens, UniProt Q5JUX0); experiment: Inhibition of recombinant human N-terminal His6-tagged SPIN3 (27 to 258 residues) expressed in Escherichia coli BL21 (DE3) cells assessed as dissociation constant by isothermal titration calorimetry
HEK-293T = experiment: Cytotoxicity against human 293T cells assessed as reduction in cell viability up to 30 uM incubated for 6 days by resazurin dye based fluorescence assay; conditions: 144 h
Spindlin-4 = molecular target: T4, Spindlin-4 (Homo sapiens, UniProt Q56A73); experiment: Inhibition of recombinant human N-terminal His6-tagged SPIN4 (36 to 249 residues) expressed in Escherichia coli BL21 (DE3) cells assessed as dissociation constant by isothermal titration calorimetry
T4 sequence (Q56A73 whole entry): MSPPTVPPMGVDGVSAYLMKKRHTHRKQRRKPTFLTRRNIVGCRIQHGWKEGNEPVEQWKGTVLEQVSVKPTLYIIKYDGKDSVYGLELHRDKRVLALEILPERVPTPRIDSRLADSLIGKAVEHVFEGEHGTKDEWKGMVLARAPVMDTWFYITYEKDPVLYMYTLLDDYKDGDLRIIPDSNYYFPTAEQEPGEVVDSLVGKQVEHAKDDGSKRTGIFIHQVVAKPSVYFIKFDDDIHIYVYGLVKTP

Spindlin-2B = Spindlin-2B (Homo sapiens, UniProt Q9BPZ2); experiment: Inhibition of recombinant human N-terminal His6-tagged SPIN2B (45 to 258 residues) expressed in Escherichia coli BL21 (DE3) cells assessed as dissociation constant by isothermal titration calorimetry
Homo sapiens [9] = species: Homo sapiens; experiment: Binding affinity to JARID1 (unknown origin) assessed as induction of thermal shifts at 20 uM measured for 25 mins by SYPRO orange dye thermal shift assay
C2C12 = experiment: Cytotoxicity against mouse C2C12 cells assessed as reduction in cell viability up to 30 uM incubated for 6 days by resazurin dye based fluorescence assay; conditions: c2c12, 144 h
Homo sapiens [10] = species: Homo sapiens; experiment: Inhibition of human MLL1/RBBP5/WDR5 trimeric complex up to 50 uM using Biot-H3 (1-25) as substrate and in presence of [3H]-SAM incubated for 1 hr by scintillation proximity assay
Homo sapiens [11] = species: Homo sapiens; experiment: Inhibition of human MLL3/ASH2L/RBBP5/WDR5/DPY30 pentameric complex up to 50 uM using Biot-H3 (1-25) as substrate and in presence of [3H]-SAM incubated for 1 hr by scintillation proximity assay

T3 sequence (Q9Y657 whole entry): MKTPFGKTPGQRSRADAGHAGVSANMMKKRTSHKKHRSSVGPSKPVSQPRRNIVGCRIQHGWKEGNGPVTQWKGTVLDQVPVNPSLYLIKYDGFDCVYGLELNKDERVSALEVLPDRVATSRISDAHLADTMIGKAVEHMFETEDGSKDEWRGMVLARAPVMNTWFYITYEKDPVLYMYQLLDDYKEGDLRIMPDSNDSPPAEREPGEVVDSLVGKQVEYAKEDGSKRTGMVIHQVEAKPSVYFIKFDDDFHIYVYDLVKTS
Histone-lysine N-methyltransferase EHMT1/EHMT2 (Homo sapiens), sequence (Q96KQ7 whole entry, looked up, the tested form may be a part): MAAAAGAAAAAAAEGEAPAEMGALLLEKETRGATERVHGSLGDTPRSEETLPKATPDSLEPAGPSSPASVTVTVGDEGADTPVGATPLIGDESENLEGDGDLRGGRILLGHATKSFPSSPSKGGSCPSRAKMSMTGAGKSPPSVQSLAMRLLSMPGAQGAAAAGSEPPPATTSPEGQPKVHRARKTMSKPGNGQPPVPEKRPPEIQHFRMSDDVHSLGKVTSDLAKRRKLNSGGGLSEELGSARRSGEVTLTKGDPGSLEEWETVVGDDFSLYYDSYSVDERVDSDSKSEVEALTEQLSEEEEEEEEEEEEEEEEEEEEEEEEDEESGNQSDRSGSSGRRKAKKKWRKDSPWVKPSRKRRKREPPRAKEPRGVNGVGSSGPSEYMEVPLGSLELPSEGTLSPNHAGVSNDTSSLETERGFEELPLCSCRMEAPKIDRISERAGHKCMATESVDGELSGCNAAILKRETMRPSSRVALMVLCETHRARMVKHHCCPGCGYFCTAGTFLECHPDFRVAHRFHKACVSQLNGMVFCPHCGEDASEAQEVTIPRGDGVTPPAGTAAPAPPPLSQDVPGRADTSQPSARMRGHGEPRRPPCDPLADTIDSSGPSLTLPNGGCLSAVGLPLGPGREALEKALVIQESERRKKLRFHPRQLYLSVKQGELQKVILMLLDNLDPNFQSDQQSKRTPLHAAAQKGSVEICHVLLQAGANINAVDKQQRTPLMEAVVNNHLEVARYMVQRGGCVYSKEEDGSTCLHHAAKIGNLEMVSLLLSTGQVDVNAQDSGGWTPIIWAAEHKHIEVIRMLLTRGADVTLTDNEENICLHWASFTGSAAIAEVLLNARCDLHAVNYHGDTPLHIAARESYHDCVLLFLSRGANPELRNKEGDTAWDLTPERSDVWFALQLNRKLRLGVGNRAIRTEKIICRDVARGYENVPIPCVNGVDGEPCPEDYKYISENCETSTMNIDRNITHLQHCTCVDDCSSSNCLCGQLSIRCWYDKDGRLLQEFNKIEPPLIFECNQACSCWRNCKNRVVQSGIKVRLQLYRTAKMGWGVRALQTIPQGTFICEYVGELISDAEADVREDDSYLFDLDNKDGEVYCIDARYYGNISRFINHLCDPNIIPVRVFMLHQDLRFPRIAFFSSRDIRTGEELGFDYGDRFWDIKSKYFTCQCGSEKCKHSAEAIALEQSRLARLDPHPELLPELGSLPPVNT
Histone-lysine N-methyltransferase EHMT1/EHMT2 (Homo sapiens), sequence (Q9H9B1 whole entry, looked up, the tested form may be a part): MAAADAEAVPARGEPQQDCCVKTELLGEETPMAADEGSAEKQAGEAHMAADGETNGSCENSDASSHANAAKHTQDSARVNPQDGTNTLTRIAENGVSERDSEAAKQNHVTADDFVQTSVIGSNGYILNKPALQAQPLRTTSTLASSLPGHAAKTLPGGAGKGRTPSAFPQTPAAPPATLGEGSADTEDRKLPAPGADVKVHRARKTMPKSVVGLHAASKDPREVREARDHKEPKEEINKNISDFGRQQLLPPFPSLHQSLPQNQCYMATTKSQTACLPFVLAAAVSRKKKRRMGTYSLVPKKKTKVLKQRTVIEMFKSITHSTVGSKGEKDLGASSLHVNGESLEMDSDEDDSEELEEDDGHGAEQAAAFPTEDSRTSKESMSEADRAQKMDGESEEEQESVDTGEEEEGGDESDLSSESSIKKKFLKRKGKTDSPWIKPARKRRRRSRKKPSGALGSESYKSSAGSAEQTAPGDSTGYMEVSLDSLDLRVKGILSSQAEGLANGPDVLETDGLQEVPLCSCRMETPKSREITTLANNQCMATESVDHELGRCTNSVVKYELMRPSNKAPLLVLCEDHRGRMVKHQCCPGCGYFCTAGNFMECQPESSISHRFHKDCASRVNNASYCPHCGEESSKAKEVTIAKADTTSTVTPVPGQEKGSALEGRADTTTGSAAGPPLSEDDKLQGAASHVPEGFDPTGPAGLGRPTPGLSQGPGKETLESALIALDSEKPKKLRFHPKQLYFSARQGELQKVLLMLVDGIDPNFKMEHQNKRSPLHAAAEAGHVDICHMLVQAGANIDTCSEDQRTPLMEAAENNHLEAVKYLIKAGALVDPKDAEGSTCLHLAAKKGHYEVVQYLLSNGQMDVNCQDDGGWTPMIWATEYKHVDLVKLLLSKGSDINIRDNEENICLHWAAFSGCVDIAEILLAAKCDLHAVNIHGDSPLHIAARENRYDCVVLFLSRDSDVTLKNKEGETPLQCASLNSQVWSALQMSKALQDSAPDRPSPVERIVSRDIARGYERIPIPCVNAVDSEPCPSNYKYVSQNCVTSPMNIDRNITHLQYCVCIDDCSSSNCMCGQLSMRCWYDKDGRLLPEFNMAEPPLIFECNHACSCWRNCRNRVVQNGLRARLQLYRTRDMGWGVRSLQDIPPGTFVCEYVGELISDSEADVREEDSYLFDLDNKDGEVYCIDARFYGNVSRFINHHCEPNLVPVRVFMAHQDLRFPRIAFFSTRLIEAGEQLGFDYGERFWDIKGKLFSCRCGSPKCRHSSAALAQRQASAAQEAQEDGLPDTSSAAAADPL
Spindlin-2B, sequence (Q9BPZ2 whole entry, the tested form may be a part): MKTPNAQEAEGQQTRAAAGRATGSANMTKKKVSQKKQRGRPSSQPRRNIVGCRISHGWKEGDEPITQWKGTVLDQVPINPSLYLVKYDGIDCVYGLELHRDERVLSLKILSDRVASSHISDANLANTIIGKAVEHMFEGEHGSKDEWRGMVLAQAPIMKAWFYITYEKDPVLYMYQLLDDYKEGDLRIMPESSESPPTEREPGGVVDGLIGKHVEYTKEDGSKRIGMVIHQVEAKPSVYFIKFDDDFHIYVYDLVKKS
Spindlin-3, sequence (Q5JUX0 whole entry, the tested form may be a part): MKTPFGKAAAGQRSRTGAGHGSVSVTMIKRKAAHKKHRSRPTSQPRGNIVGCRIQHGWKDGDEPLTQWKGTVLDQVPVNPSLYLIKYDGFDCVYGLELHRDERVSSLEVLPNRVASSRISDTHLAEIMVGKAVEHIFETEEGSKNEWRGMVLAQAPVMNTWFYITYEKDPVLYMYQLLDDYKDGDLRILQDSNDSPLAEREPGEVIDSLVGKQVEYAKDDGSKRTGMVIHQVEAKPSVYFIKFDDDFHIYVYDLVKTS

CCN(CC)CCCC[C@H](NC(=O)[C@H](CC(C)C)NC(=O)[C@H](C)NC(=O)[C@H](C)NC(=O)c1ccc(C(C)(C)C)cc1)C(=O)N[C@@H](CO)C(=O)OC ({Benzoyl(4-tBu)}-AAL[Lys(Et2)]S-OMe)
Kd [1]: 94 nM | Kd [2]: 97 nM

COc1c(CN)cc(CN)cc1OCCCN1CCCC1
IC50 (Spindlin-1 [3]): 741 nM | Kd (Spindlin-1 [4]; read-out: Kd): 390 nM | IC50 (Spindlin-1 [5]): 338 nM | inhibition [6]: inactive

COc1c(CN)cc(C(N)=O)cc1OCCCN1Cc2ccccc2C1
IC50 (Spindlin-1 [7]): Not Active | IC50 (Spindlin-1 [8]): Not Active | Kd (Spindlin-1 [4]): Not Active

COc1c(CN)cc(CN)cc1OCCCN1Cc2ccccc2C1
Activity (HFF-1): Non-Toxic | Kd (Spindlin-3): 170 to 1700 nM | Activity (HEK-293T): Non-Toxic | Kd (Spindlin-4): 170 to 1700 nM | Kd (Spindlin-2B): 170 to 1700 nM | Activity (Homo sapiens [9]): inactive | inhibition [6]: inactive | Activity (C2C12): Non-Toxic | inhibition (Homo sapiens [10]): inactive | inhibition (Homo sapiens [11]): inactive
